According to US20260085067A1, “CYCLIC SULFONAMIDE RIBONUCLEOTIDE REDUCTASE (RNR) INHIBITORS AND USES THEREOF” (Boundless Bio, Inc., priority 2022, published 2026):

Experiments:
[1] = system: pCHK1 (S345) in Colo320 DM cells; assay: Alphalisa assay, detection of pCHK1 (S345) in Colo320 DM cells; type: cell-based, human; settings: Homo sapiens, COLO 320DM, compound overnight (approximately 16 hours)
Procedure, shortened: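 Colo320 DM cells plated overnight, then exposed to compound for about 16 h at 37 °C (DMSO <0.5%). Cells lysed and phospho-CHK1 (S345) quantified by AlphaLisa SureFire with sequential 60 min acceptor and donor incubations at room temperature.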

[2] = molecular target: T1, RNR (RNR1:RNR2 1:1) (Homo sapiens, UniProt P23921); assay: RNR enzyme activity, rapid-fire mass spectrometry (RF/MS) assay; type: biochemical; settings: [RNR] 50 nM, 1:1 RNR1:RNR2; CDP 5 μM; ATP 1 mM; 37° C., 45 min; compounds screened up to 50 μM
T1 sequence (P23921 1-792): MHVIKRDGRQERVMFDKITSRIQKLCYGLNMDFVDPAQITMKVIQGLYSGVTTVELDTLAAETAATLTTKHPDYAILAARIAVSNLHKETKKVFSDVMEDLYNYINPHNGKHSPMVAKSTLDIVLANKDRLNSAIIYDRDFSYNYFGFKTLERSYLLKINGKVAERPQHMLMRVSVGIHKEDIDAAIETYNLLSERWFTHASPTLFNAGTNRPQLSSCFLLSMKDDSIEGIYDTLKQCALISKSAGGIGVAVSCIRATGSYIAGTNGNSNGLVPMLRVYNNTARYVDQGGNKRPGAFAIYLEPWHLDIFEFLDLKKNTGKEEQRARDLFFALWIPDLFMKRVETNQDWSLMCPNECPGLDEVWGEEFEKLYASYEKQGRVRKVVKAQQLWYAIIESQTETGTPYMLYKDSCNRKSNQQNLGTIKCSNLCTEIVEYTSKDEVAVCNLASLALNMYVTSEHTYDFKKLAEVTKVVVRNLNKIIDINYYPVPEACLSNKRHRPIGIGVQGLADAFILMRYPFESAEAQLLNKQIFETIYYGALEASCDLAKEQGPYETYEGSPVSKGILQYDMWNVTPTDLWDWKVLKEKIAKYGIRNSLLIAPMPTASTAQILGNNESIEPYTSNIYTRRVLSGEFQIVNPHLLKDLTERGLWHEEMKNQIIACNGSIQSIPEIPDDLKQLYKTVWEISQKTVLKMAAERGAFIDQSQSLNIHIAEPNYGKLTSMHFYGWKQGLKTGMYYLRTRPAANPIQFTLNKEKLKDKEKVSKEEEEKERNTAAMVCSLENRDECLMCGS
Procedure, shortened: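 Human RNR (50 nM final, RNR1:RNR2 1:1) pre-incubated 15 min at room temperature, then reacted 45 min at 37 °C with 5 μM CDP and 1 mM ATP, no NADPH. Reaction quenched with 6% HCOOH; product quantified by rapid-fire mass spectrometry.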

IC50 [1] [nM] | IC50 [2] [nM] | Compound
≤ 1000 | 20 to 100 | CC(=O)c1c(Cl)ccc2c1N(C)CN([C@H](c1n[nH]c(=O)o1)[C@H](C)c1c(F)ccc(C)c1C)S2(=O)=O [Example 64, 5-((1S,2R)-1-(5-acetyl-6-chloro-4-methyl-1,1-dioxido-3,4-dihydro-2H-benzo[e][1,2,4]thiadiazin-2-yl)-2-(6-fluoro-2,3-dimethylphenyl)propyl)-1,3,4-oxadiazol-2 (3H)-one]
≤ 1000 | < 20 | Cc1ccc(F)c([C@@H](C)[C@@H](c2n[nH]c(=O)o2)N2CN(C3CN(C)C3)c3cc(Cl)ccc3S2(=O)=O)c1C [Example 65, 5-((1S,2R)-1-(6-chloro-4-(1-methylazetidin-3-yl)-1,1-dioxido-3,4-dihydro-2H-benzo[e][1,2,4]thiadiazin-2-yl)-2-(6-fluoro-2,3-dimethylphenyl)propyl)-1,3,4-oxadiazol-2 (3H)-one]
10000 to 50000 | 20 to 100 | Cc1ccc(F)c([C@@H](C)[C@@H](c2n[nH]c(=O)o2)N2CN(C)c3cc(O)ccc3S2(=O)=O)c1C [Example 66, 5-((1S,2R)-2-(6-fluoro-2,3-dimethylphenyl)-1-(6-hydroxy-4-methyl-1,1-dioxido-3,4-dihydro-2H-benzo[e][1,2,4]thiadiazin-2-yl)propyl)-1,3,4-oxadiazol-2 (3H)-one]
5000 to 10000 | 100 to 1000 | Cc1ccc(F)c([C@@H](C)[C@@H](c2n[nH]c(=O)o2)N2CN(S(C)(=O)=O)c3cc(Cl)ccc3S2(=O)=O)c1C [Example 67, 5-((1S,2R)-1-(6-chloro-4-(methylsulfonyl)-1,1-dioxido-3,4-dihydro-2H-benzo[e][1,2,4]thiadiazin-2-yl)-2-(6-fluoro-2,3-dimethylphenyl)propyl)-1,3,4-oxadiazol-2 (3H)-one]
≤ 1000 | 20 to 100 | Cc1ccc(F)c([C@@H](C)[C@@H](c2n[nH]c(=O)o2)N2CN(C)c3cc(Cl)cc(C(C)O)c3S2(=O)=O)c1C (stereo partly drawn) [Example 68, 5-((1S,2R)-1-(6-chloro-8-(1-hydroxyethyl)-4-methyl-1,1-dioxido-3,4-dihydro-2H-benzo[e][1,2,4]thiadiazin-2-yl)-2-(6-fluoro-2,3-dimethylphenyl)propyl)-1,3,4-oxadiazol-2 (3H)-one]
> 50000 | 1000 to 10000 | COCc1cc2c(cc1Cl)OCCN([C@H](c1n[nH]c(=O)o1)[C@H](C)c1c(F)ccc(C)c1C)S2(=O)=O [Example 69, 5-((1S,2R)-1-(7-chloro-8-(methoxymethyl)-1,1-dioxido-3,4-dihydro-2H-benzo[b][,4,5]oxathiazepin-2-yl)-2-(6-fluoro-2,3-dimethylphenyl)propyl)-1,3,4-oxadiazol-2 (3H)-one]
1000 to 5000 | 20 to 100 | COCc1cc(Cl)cc2c1S(=O)(=O)N([C@H](c1n[nH]c(=O)o1)[C@H](C)c1c(F)ccc(C)c1C)CN2C [Example 70, 5-((1S,2R)-1-(6-chloro-8-(methoxymethyl)-4-methyl-1,1-dioxido-3,4-dihydro-2H-benzo[e][1,2,4]thiadiazin-2-yl)-2-(6-fluoro-2,3-dimethylphenyl)propyl)-1,3,4-oxadiazol-2 (3H)-one]
≤ 1000 | 100 to 1000 | COCc1cc(Cl)cc2c1S(=O)(=O)N([C@H](c1n[nH]c(=O)o1)[C@H](C)c1c(F)ccc(C)c1C)CCO2 [Example 71, 5-((1S,2R)-1-(7-chloro-9-(methoxymethyl)-1,1-dioxido-3,4-dihydro-2H-benzo[b][1,4,5]oxathiazepin-2-yl)-2-(6-fluoro-2,3-dimethylphenyl)propyl)-1,3,4-oxadiazol-2 (3H)-one]
≤ 1000 | < 20 | Cc1ccc(F)c([C@@H](C)[C@@H](c2n[nH]c(=O)o2)N2CN(C)c3cc(Cl)cc(CO)c3S2(=O)=O)c1C [Example 72, 5-((1S,2R)-1-(6-chloro-8-(hydroxymethyl)-4-methyl-1,1-dioxido-3,4-dihydro-2H-benzo[e][1,2,4]thiadiazin-2-yl)-2-(6-fluoro-2,3-dimethylphenyl)propyl)-1,3,4-oxadiazol-2 (3H)-one]
≤ 1000 | < 20 | Cc1ccc(F)c([C@@H](C)[C@@H](c2n[nH]c(=O)o2)N2CN(CCO)c3nc(Cl)ccc3S2(=O)=O)c1C [Example 73, 5-((1S,2R)-1-(6-chloro-4-(2-hydroxyethyl)-1,1-dioxido-3,4-dihydro-2H-pyrido[2,3-e][1,2,4]thiadiazin-2-yl)-2-(6-fluoro-2,3-dimethylphenyl)propyl)-1,3,4-oxadiazol-2 (3H)-one]
≤ 1000 | < 20 | Cc1ccc(F)c([C@@H](C)[C@@H](c2n[nH]c(=O)o2)N2CN([C@@H]3CCN(C)C3)c3cc(Cl)ccc3S2(=O)=O)c1C [Example 74, 5-((1S,2R)-1-(6-chloro-4-((R)-1-methylpyrrolidin-3-yl)-1,1-dioxido-3,4-dihydro-2H-benzo[e][1,2,4]thiadiazin-2-yl)-2-(6-fluoro-2,3-dimethylphenyl)propyl)-1,3,4-oxadiazol-2 (3H)-one]
1000 to 5000 | < 20 | Cc1ccc(F)c([C@@H](C)[C@@H](c2n[nH]c(=O)o2)N2CN(C)c3cc(Cl)cc(CBr)c3S2(=O)=O)c1C [Example 76, 5-((1S,2R)-1 (8-(bromomethyl)-6-chloro-4-methyl-1,1-dioxido-3,4-dihydro-2H-benzo[e][1,2,4]thiadiazin-2-yl)-2-(6-fluoro-2,3-dimethylphenyl)propyl)-1,3,4-oxadiazol-2 (3H)-one]
> 50000 | 100 to 1000 | Cc1ccc(F)c([C@@H](C)[C@@H](c2n[nH]c(=O)o2)N2CCOc3cc(Cl)c(CO)cc3S2(=O)=O)c1C [Example 77, 5-((1S,2R)-1-(7-chloro-8-(hydroxymethyl)-1,1-dioxido-3,4-dihydro-2H-benzo[b][1,4,5]oxathiazepin-2-yl)-2-(6-fluoro-2,3-dimethylphenyl)propyl)-1,3,4-oxadiazol-2 (3H)-one]
≤ 1000 | < 20 | Cc1ccc(F)c([C@@H](C)[C@@H](c2n[nH]c(=O)o2)N2CCOc3cc(Cl)cc(CO)c3S2(=O)=O)c1C [Example 78, 5-((1S,2R)-1-(7-chloro-9-(hydroxymethyl)-1,1-dioxido-3,4-dihydro-2H-benzo[b][1,4,5]oxathiazepin-2-yl)-2-(6-fluoro-2,3-dimethylphenyl)propyl)-1,3,4-oxadiazol-2 (3H)-one]
≤ 1000 | < 20 | Cc1ccc(F)c([C@@H](C)[C@@H](c2n[nH]c(=O)o2)N2CN(CCCO)c3cc(Cl)ccc3S2(=O)=O)c1C [Example 79, 5-((1S,2R)-1-(6-chloro-4-(3-hydroxypropyl)-1,1-dioxido-3,4-dihydro-2H-benzo[e][1,2,4]thiadiazin-2-yl)-2-(6-fluoro-2,3-dimethylphenyl)propyl)-1,3,4-oxadiazol-2 (3H)-one]
≤ 1000 | < 20 | Cc1ccc(F)c([C@@H](C)[C@@H](c2n[nH]c(=O)o2)N2CN(CCN3CCCC3)c3cc(Cl)ccc3S2(=O)=O)c1C [Example 80, 5-((1S,2R)-1-(6-chloro-1,1-dioxido-4-(2-(pyrrolidin-1-yl)ethyl)-3,4-dihydro-2H-benzo[e][1,2,4]thiadiazin-2-yl)-2-(6-fluoro-2,3-dimethylphenyl)propyl)-1,3,4-oxadiazol-2 (3H)-one]
≤ 1000 | < 20 | Cc1ccc(F)c([C@@H](C)[C@@H](c2n[nH]c(=O)o2)N2CN(CC(F)F)c3nc(Cl)ccc3S2(=O)=O)c1C [Example 81, 5-[(1S,2R)-1-[6-chloro-4-(2,2-difluoroethyl)-1,1-dioxo-3H-pyrido[2,3-e][1,2,4]thiadiazin-2-yl]-2-(6-fluoro-2,3-dimethyl-phenyl)propyl]-3H-1,3,4-oxadiazol-2-one]
≤ 1000 | < 20 | Cc1ccc(F)c([C@@H](C)[C@@H](c2n[nH]c(=O)o2)N2CN(CCCO)c3nc(Cl)ccc3S2(=O)=O)c1C [Example 82, 5-[(1S,2R)-1-[6-chloro-4-(3-hydroxypropyl)-1,1-dioxo-3H-pyrido[2,3-e][1,2,4]thiadiazin-2-yl]-2-(6-fluoro-2,3-dimethyl-phenyl)propyl]-3H-1,3,4-oxadiazol-2-one]
≤ 1000 | < 20 | Cc1ccc(F)c([C@@H](C)[C@@H](c2n[nH]c(=O)o2)N2CN(CC3COC3)c3cc(Cl)ccc3S2(=O)=O)c1C [Example 83, 5-((1S,2R)-1-(6-chloro-4-(oxetan-3-ylmethyl)-1,1-dioxido-3,4-dihydro-2H-benzo[e][1,2,4]thiadiazin-2-yl)-2-(6-fluoro-2,3-dimethylphenyl)propyl)-1,3,4-oxadiazol-2 (3H)-one]
